Measurements published in patent US9771369B2, “Compounds and methods for kinase modulation, and indications therefor” (Plexxikon Inc., priority 2014, dated 2017).

Tests used:
[1] = molecular target: c-kit mutant D816V (Homo sapiens (Human), UniProt P10721, D816V/DEL694-753); assay: c-Kit mutant D816V biochemical assay (AlphaScreen kinase activity)
Outline: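 AlphaScreen with streptavidin donor and PY30 acceptor beads read phosphotyrosine on biotin-(E4Y)10 substrate (30 nM). Enzyme: E. coli-expressed N-His c-Kit D816V, residues 551-934 lacking kinase insert 694-753. Reaction 30 min at room temperature, 10 μM ATP, 5% DMSO; IC50 fitted over 8 three-fold dilutions.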

[2] = test system: BaF3-FL KIT D816V or BaF3-FL KIT V560G/D816V cell line; assay: Cell-based assays of c-Kit mutant kinase activity (cell proliferation, ATPlite); conditions: at least one of the c-kit cell assays of Example 7
Outline: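 BaF3 cells dependent on transfected full-length human KIT D816V or V560G/D816V (pCI-Neo, CMV promoter) were seeded at 1×10^4 cells/well and exposed to 8-point 1:3 dilutions from 10 μM top (0.2% DMSO) for three days at 37° C. ATPlite luminescence gave cell number; IC50 from concentration-response.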

Chain of c-kit mutant D816V (P10721 other isoform, or with tags, fused parts or gaps D816V/del 694-753): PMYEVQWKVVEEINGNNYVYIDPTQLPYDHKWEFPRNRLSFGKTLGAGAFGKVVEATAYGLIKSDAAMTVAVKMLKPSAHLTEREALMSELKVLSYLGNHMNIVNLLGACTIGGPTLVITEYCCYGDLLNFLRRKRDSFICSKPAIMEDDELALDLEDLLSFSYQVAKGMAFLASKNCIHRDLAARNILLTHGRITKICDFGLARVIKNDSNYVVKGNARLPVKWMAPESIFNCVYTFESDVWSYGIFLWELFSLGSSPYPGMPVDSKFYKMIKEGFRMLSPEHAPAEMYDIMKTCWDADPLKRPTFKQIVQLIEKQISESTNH

Row | SMILES | IC50 [1] | IC50 [2]
1 | CCOc1ccc(-c2[nH]c(C3CCN(c4ncnc5[nH]c(C)cc45)CC3)nc2C)cc1C [P-3125, 4-[4-[5-(4-ethoxy-3-methyl-phenyl)-4-methyl-1H-imidazol-2-yl]-1-piperidyl]-6-methyl-7H-pyrrolo[2,3-d]pyrimidine] | 1 to 10 µM | < 10000 nM
2 | CCOc1cc(-c2[nH]c(C3CCN(c4ncnc5[nH]c(C)cc45)CC3)nc2C)ccc1C [P-3126, 4-[4-[5-(3-ethoxy-4-methyl-phenyl)-4-methyl-1H-imidazol-2-yl]-1-piperidyl]-6-methyl-7H-pyrrolo[2,3-d]pyrimidine] | 0.0001 to 1 µM | < 10000 nM
3 | Cc1cc2c(N3CCC(c4nc(C)c(-c5ccc6c(c5)OC(F)(F)O6)[nH]4)CC3)ncnc2[nH]1 [P-3127, 4-[4-[5-(2,2-difluoro-1,3-benzodioxol-5-yl)-4-methyl-1H-imidazol-2-yl]-1-piperidyl]-6-methyl-7H-pyrrolo[2,3-d]pyrimidine] | 1 to 10 µM | < 10000 nM
4 | COc1ccc(-c2[nH]c(C3CCN(c4ncnc5[nH]c(C)cc45)CC3)nc2C)cc1C [P-3128, 4-[4-[5-(4-methoxy-3-methyl-phenyl)-4-methyl-1H-imidazol-2-yl]-1-piperidyl]-6-methyl-7H-pyrrolo[2,3-d]pyrimidine] | 0.0001 to 1 µM | < 10000 nM
5 | COc1cc(-c2[nH]c(C3CCN(c4ncnc5[nH]c(C)cc45)CC3)nc2C)ccc1C [P-3129, 4-[4-[5-(3-methoxy-4-methyl-phenyl)-4-methyl-1H-imidazol-2-yl]-1-piperidyl]-6-methyl-7H-pyrrolo[2,3-d]pyrimidine] | 1 to 10 µM | < 10000 nM
6 | COc1ccc(-c2[nH]c(C3CCN(c4ncnc5[nH]c(C)cc45)CC3)nc2C)cc1 [P-3130, 4-[4-[5-(4-methoxyphenyl)-4-methyl-1H-imidazol-2-yl]-1-piperidyl]-6-methyl-7H-pyrrolo[2,3-d]pyrimidine] | 1 to 10 µM | < 10000 nM
7 | COc1cccc(-c2[nH]c(C3CCN(c4ncnc5[nH]c(C)cc45)CC3)nc2C)c1 [P-3131, 4-[4-[5-(3-methoxyphenyl)-4-methyl-1H-imidazol-2-yl]-1-piperidyl]-6-methyl-7H-pyrrolo[2,3-d]pyrimidine] | 0.0001 to 1 µM | < 10000 nM
8 | Cc1nc(C2CCN(c3ncnc4[nH]c(-c5ccc(C#N)cc5)cc34)CC2)[nH]c1-c1ccc2c(c1)OCCO2 [P-3132, 4-[4-[4-[5-(2,3-dihydro-1,4-benzodioxin-6-yl)-4-methyl-1H-imidazol-2-yl]-1-piperidyl]-7H-pyrrolo[2,3-d]pyrimidin-6-yl]benzonitrile] | 0.0001 to 1 µM | < 10000 nM
9 | Cc1nc(C2CCN(c3ncnc4[nH]c(-c5cnn(C(F)F)c5)cc34)CC2)[nH]c1-c1ccc2c(c1)OCCO2 [P-3133, 6-[1-(difluoromethyl)pyrazol-4-yl]-4-[4-[5-(2,3-dihydro-1,4-benzodioxin-6-yl)-4-methyl-1H-imidazol-2-yl]-1-piperidyl]-7H-pyrrolo[2,3-d]pyrimidine] | 0.0001 to 1 µM | < 10000 nM
10 | COc1cc(-c2cc3c(N4CCC(c5nc(C(F)(F)F)c(-c6ccc(C)cc6)[nH]5)CC4)ncnc3[nH]2)ccn1 [P-3134, 6-(2-methoxy-4-pyridyl)-4-[4-[5-(p-tolyl)-4-(trifluoromethyl)-1H-imidazol-2-yl]-1-piperidyl]-7H-pyrrolo[2,3-d]pyrimidine] | 0.0001 to 1 µM | < 10000 nM
11 | Cc1ccc(-c2[nH]c(C3CCN(c4ncnc5[nH]c(-c6ccc(F)cc6)cc45)CC3)nc2C(F)(F)F)cc1 [P-3135, 6-(4-fluorophenyl)-4-[4-[5-(p-tolyl)-4-(trifluoromethyl)-1H-imidazol-2-yl]-1-piperidyl]-7H-pyrrolo[2,3-d]pyrimidine] | 0.0001 to 1 µM | < 10000 nM
12 | Cc1nc(C2CCN(c3ncnc4[nH]c(-c5ccc(F)cc5)cc34)CC2)[nH]c1-c1ccc(C(F)(F)F)cc1 [P-3136, 6-(4-fluorophenyl)-4-[4-[4-methyl-5-[4-(trifluoromethyl)phenyl]-1H-imidazol-2-yl]-1-piperidyl]-7H-pyrrolo[2,3-d]pyrimidine] | 0.0001 to 1 µM | < 10000 nM
13 | Cc1nc(C2CCN(c3ncnc4[nH]c(-c5ccc(C#N)cc5)cc34)CC2)[nH]c1-c1ccc(C(F)(F)F)cc1 [P-3137, 4-[4-[4-[4-methyl-5-[4-(trifluoromethyl)phenyl]-1H-imidazol-2-yl]-1-piperidyl]-7H-pyrrolo[2,3-d]pyrimidin-6-yl]benzonitrile] | 0.0001 to 1 µM | < 10000 nM
14 | Cc1nc(C2CCN(c3ncnc4[nH]c(-c5cnn(C(F)F)c5)cc34)CC2)[nH]c1-c1ccc2c(c1)OCO2 [P-3138, 4-[4-[5-(1,3-benzodioxol-5-yl)-4-methyl-1H-imidazol-2-yl]-1-piperidyl]-6-[1-(difluoromethyl)pyrazol-4-yl]-7H-pyrrolo[2,3-d]pyrimidine] | 0.0001 to 1 µM | < 10000 nM
15 | CCOc1ccc(-c2[nH]c(C3CCN(c4ncnc5[nH]c(-c6cnn(C(F)F)c6)cc45)CC3)nc2C)cc1C [P-3139, 6-[1-(difluoromethyl)pyrazol-4-yl]-4-[4-[5-(4-ethoxy-3-methyl-phenyl)-4-methyl-1H-imidazol-2-yl]-1-piperidyl]-7H-pyrrolo[2,3-d]pyrimidine] | 0.0001 to 1 µM | < 10000 nM
16 | CCC1(c2nc(C)c(-c3ccc(OC)cc3)[nH]2)CCN(c2ncnc3[nH]c(C)cc23)CC1 [P-3140, 4-[4-ethyl-4-[5-(4-methoxyphenyl)-4-methyl-1H-imidazol-2-yl]-1-piperidyl]-6-methyl-7H-pyrrolo[2,3-d]pyrimidine] | 0.0001 to 1 µM | < 10000 nM
17 | CCC1(c2nc(C)c(-c3ccc(OC)c(C)c3)[nH]2)CCN(c2ncnc3[nH]c(C)cc23)CC1 [P-3141, 4-[4-ethyl-4-[5-(4-methoxy-3-methyl-phenyl)-4-methyl-1H-imidazol-2-yl]-1-piperidyl]-6-methyl-7H-pyrrolo[2,3-d]pyrimidine] | 0.0001 to 1 µM | < 10000 nM
18 | CCOc1ccc(-c2[nH]c(C3(CC)CCN(c4ncnc5[nH]c(C)cc45)CC3)nc2C)cc1C [P-3142, 4-[4-[5-(4-ethoxy-3-methyl-phenyl)-4-methyl-1H-imidazol-2-yl]-4-ethyl-1-piperidyl]-6-methyl-7H-pyrrolo[2,3-d]pyrimidine] | 0.0001 to 1 µM | < 10000 nM
19 | CCC1(c2nc(C)c(-c3ccc4c(c3)OCO4)[nH]2)CCN(c2ncnc3[nH]c(C)cc23)CC1 [P-3143, 4-[4-[5-(1,3-benzodioxol-5-yl)-4-methyl-1H-imidazol-2-yl]-4-ethyl-1-piperidyl]-6-methyl-7H-pyrrolo[2,3-d]pyrimidine] | 0.0001 to 1 µM | < 10000 nM
20 | CCC1(c2nc(C)c(-c3ccc4c(c3)OCCO4)[nH]2)CCN(c2ncnc3[nH]c(C)cc23)CC1 [P-3144, 4-[4-[5-(2,3-dihydro-1,4-benzodioxin-6-yl)-4-methyl-1H-imidazol-2-yl]-4-ethyl-1-piperidyl]-6-methyl-7H-pyrrolo[2,3-d]pyrimidine] | 0.0001 to 1 µM | < 10000 nM
21 | CCOc1ccc(-c2[nH]c(C3(CC)CCN(c4ncnc5[nH]c(C)cc45)CC3)nc2C)cc1 [P-3145, 4-[4-[5-(4-ethoxyphenyl)-4-methyl-1H-imidazol-2-yl]-4-ethyl-1-piperidyl]-6-methyl-7H-pyrrolo[2,3-d]pyrimidine] | 0.0001 to 1 µM | < 10000 nM
22 | COc1ccc(-c2[nH]c(C3CCN(c4ncnc5[nH]c(-c6ccnc(OC)c6)cc45)CC3)nc2C(F)(F)F)cc1 [P-3146, 4-[4-[5-(4-methoxyphenyl)-4-(trifluoromethyl)-1H-imidazol-2-yl]-1-piperidyl]-6-(2-methoxy-4-pyridyl)-7H-pyrrolo[2,3-d]pyrimidine] | 0.0001 to 1 µM | < 10000 nM
23 | COc1ccc(-c2[nH]c(C3CCN(c4ncnc5[nH]c(-c6ccc(C#N)cc6)cc45)CC3)nc2C(F)(F)F)cc1 [P-3148, 4-[4-[4-[5-(4-methoxyphenyl)-4-(trifluoromethyl)-1H-imidazol-2-yl]-1-piperidyl]-7H-pyrrolo[2,3-d]pyrimidin-6-yl]benzonitrile] | 0.0001 to 1 µM | < 10000 nM
24 | COc1cc(-c2cc3c(N4CCC(c5nc(C)c(-c6ccc(C(F)(F)F)cc6)[nH]5)CC4)ncnc3[nH]2)ccn1 [P-3149, 6-(2-methoxy-4-pyridyl)-4-[4-[4-methyl-5-[4-(trifluoromethyl)phenyl]-1H-imidazol-2-yl]-1-piperidyl]-7H-pyrrolo[2,3-d]pyrimidine] | 0.0001 to 1 µM | < 10000 nM
25 | Cc1cc2c(N3CCC(C)(c4nc(C)c(-c5ccc6c(c5)OCO6)[nH]4)CC3)ncnc2[nH]1 [P-3150, 4-[4-[5-(1,3-benzodioxol-5-yl)-4-methyl-1H-imidazol-2-yl]-4-methyl-1-piperidyl]-6-methyl-7H-pyrrolo[2,3-d]pyrimidine] | 0.0001 to 1 µM | < 10000 nM
26 | Cc1cc2c(N3CCC(C)(c4nc(C)c(-c5ccc6c(c5)OCCO6)[nH]4)CC3)ncnc2[nH]1 [P-3151, 4-[4-[5-(2,3-dihydro-1,4-benzodioxin-6-yl)-4-methyl-1H-imidazol-2-yl]-4-methyl-1-piperidyl]-6-methyl-7H-pyrrolo[2,3-d]pyrimidine] | 0.0001 to 1 µM | < 10000 nM
27 | Cc1cc2c(N3CCC(C)(c4nc(C)c(-c5ccc6c(c5)OC(F)(F)O6)[nH]4)CC3)ncnc2[nH]1 [P-3152, 4-[4-[5-(2,2-difluoro-1,3-benzodioxol-5-yl)-4-methyl-1H-imidazol-2-yl]-4-methyl-1-piperidyl]-6-methyl-7H-pyrrolo[2,3-d]pyrimidine] | 0.0001 to 1 µM | < 10000 nM
